The text below walks through data of US8772480B2, “Inhibitors of PI3 kinase and/or mTOR” (priority 2009, dated 2014).

One assay deals with PI3Kα (Homo sapiens (Human), UniProt P42336). To be noted: read-out: PI3Kα AlphaScreen ® Ki. A general note: Bead proximity is the source of the signal in Alpha formats.
Assay [1] has as its system phosphorylation of Akt at Serine 473 in U87 MG cells. Description: cells. To be noted: Homo sapiens, U-87 MG, 2 h, read-out: U87Cell IC50, pAkt (Ser 473), U87 MG cells, two hours with compound.

PI3Kα, sequence (P42336 whole entry): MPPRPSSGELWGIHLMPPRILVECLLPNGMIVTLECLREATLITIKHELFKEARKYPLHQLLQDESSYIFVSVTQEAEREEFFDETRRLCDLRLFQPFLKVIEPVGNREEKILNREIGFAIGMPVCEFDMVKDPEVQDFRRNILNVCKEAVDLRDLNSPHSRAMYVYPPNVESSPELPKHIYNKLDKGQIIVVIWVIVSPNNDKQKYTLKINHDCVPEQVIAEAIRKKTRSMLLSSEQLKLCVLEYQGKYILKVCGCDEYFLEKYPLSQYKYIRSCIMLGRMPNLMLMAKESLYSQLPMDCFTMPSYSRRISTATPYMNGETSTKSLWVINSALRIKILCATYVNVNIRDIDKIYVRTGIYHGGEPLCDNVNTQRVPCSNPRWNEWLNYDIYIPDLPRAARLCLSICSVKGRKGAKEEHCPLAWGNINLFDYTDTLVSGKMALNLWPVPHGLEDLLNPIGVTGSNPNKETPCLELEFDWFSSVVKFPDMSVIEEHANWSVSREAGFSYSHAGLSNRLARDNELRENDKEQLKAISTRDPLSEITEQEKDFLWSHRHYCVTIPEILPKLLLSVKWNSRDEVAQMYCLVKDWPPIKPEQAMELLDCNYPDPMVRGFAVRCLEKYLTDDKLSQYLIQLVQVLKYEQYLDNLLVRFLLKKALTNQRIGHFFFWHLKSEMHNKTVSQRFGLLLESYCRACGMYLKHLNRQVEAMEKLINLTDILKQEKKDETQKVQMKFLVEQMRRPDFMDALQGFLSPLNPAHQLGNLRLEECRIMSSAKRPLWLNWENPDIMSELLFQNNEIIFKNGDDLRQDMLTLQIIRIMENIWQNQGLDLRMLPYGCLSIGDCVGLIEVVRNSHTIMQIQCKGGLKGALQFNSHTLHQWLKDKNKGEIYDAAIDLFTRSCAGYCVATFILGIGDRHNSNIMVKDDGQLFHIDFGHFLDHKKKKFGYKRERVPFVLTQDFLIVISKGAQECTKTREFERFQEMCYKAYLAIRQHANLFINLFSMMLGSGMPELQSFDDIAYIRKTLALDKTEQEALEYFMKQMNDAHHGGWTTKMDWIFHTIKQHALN
PI3Kα, sequence (P27986 whole entry partner): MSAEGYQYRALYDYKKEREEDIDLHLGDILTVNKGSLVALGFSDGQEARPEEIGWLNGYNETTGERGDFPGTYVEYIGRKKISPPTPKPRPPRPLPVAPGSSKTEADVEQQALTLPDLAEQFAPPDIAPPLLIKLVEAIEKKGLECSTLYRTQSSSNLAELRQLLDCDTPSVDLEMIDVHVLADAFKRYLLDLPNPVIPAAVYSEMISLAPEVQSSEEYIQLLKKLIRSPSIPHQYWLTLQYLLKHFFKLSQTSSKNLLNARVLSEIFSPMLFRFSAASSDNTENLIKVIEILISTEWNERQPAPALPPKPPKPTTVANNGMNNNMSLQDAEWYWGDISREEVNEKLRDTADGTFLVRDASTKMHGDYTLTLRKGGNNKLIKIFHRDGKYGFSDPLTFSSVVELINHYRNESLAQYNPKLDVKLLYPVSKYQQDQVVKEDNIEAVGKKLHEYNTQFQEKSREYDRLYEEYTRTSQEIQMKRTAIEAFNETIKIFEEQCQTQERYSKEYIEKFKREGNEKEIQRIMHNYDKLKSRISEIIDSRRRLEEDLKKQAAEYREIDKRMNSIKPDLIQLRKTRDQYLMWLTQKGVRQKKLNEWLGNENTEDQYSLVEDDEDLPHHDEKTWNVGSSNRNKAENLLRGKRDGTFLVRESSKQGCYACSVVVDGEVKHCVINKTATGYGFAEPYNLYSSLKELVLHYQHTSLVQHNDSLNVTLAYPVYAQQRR

The Ki is the dissociation constant of the complex between target and ligand, obtained from inhibition or displacement. Usually IC50 stands for the concentration needed to halve the response being measured. As to `COc1ncc(Nc2ncc([C@@H](C)N3CCOCC3)cc2-c2nc(C)nc(N)n2)cc1F` (single isomer, unassigned) [Example 291], on PI3Kα, the Ki was determined as 37 nM. Moreover, the IC50 in assay [1] is 7 nM.
For the compound `COc1ncc(Nc2ncc([C@H](C)N3CCOCC3)cc2-c2nc(C)nc(N)n2)cc1F` (single isomer, unassigned) [Example 292], the Ki at PI3Kα came to 44 nM. In addition, the IC50 in assay [1] worked out at 20 nM.
With `Cc1nc(N)nc(-c2cc([C@H](C)N3CCOCC3)cnc2Nc2cnc(Cl)c(NS(C)(=O)=O)c2)n1` (single isomer, unassigned) [Example 372], the Ki on PI3Kα was 5 nM. Further, the IC50 in assay [1] turned out to be 4 nM.
Consider `Nc1cc(-c2cccnc2Nc2cccc3[nH]ncc23)nc(C(F)(F)F)n1` [Example 21, N-(3-(6-Amino-2-(Trifluoromethyl)Pyrimidin-4-yl)Pyridin-2-yl)-1H-Indazol-4-Amine], for which the Ki on PI3Kα is 3140 nM.
Regarding `Cc1nc(N)c(F)c(-c2cccnc2Nc2cccc3[nH]ncc23)n1` [Example 29, N-(3-(6-Amino-5-Fluoro-2-Methylpyrimidin-4-yl)Pyridin-2-yl)-1H-Indazol-4-Amine], the Ki at PI3Kα was determined as 802 nM.
Regarding `COc1ccc(Nc2ncc(CN3CCN(S(C)(=O)=O)CC3)cc2-c2ncnc(C)n2)cn1` [Example 34, N-(6-methoxypyridin-3-yl)-3-(4-methyl-1,3,5-triazin-2-yl)-5-((4-(methylsulfonyl)piperazin-1-yl)methyl)pyridin-2-amine], the Ki on PI3Kα is 1580 nM. Further, the IC50 in assay [1] is greater than 10000 nM.
The like results for `Cc1nc(N)nc(-c2cc(CN3CCN(S(C)(=O)=O)CC3)cnc2Nc2cccc3[nH]ncc23)n1` [Example 36, N-(3-(4-amino-6-methyl-1,3,5-triazin-2-yl)-5-((4-(methylsulfonyl)piperazin-1-yl)methyl)pyridin-2-yl)-1H-indazol-4-amine] were, in that order, 4 nM and 22 nM.
The like results for `Cc1nc(N)nc(-c2cc(CN3CCN(S(C)(=O)=O)CC3)cnc2Nc2cncnc2)n1` [Example 38, 4-Methyl-6-(5-((4-(Methylsulfonyl)Piperazin-1-yl)Methyl)-2-(Pyrimidin-5-Ylamino)Pyridin-3-yl)-1,3,5-Triazin-2-Amine] were, in that order, 17 nM and 145 nM.
For the compound `Cc1nc(N)nc(-c2cc(CN3CCN(S(C)(=O)=O)CC3)cnc2Nc2ccc3ncoc3c2)n1` [Example 39, N-(3-(4-Amino-6-Methyl-1,3,5-Triazin-2-yl)-5-((4-(Methylsulfonyl)Piperazin-1-yl)Methyl)Pyridin-2-yl)Benzo[D]Oxazol-6-Amine], the Ki at PI3Kα came to 55 nM. Also, the IC50 in assay [1] is 46 nM.
`Cc1nc(N)nc(-c2cccnc2Nc2ccc(Cl)nc2)n1` [Example 54, 4-(2-(6-Chloropyridin-3-Ylamino)Pyridin-3-yl)-6-Methyl-1,3,5-Triazin-2-Amine]: the Ki at PI3Kα turned out to be 160 nM. Moreover, in assay [1], the IC50 is 674 nM.
The like results for `COc1ccc(Nc2ncc(CNc3cccnn3)cc2-c2nc(C)nc3[nH]cnc23)cn1` [Example 80, N-((6-(6-methoxypyridin-3-ylamino)-5-(2-methyl-9H-purin-6-yl)pyridin-3-yl)methyl)pyridazin-3-amine] were, in that order, 33 nM and 305 nM.
The like results for `COc1ccc(Nc2ncc(CNc3ccncc3)cc2-c2nc(C)nc3[nH]cnc23)cn1` [Example 81, N-(6-methoxypyridin-3-yl)-3-(2-methyl-9H-purin-6-yl)-5-((pyridin-4-ylamino)methyl)pyridin-2-amine] were, in that order, 42 nM and 509 nM.
Regarding `COc1ccc(Nc2ncc(CNc3ccccn3)cc2-c2nc(C)nc3[nH]cnc23)cn1` [Example 82, N-(6-methoxypyridin-3-yl)-3-(2-methyl-9H-purin-6-yl)-5-((pyridin-2-ylamino)methyl)pyridin-2-amine], on PI3Kα, the Ki amounted to 25 nM. For the same compound, in assay [1], the IC50 came to 226 nM.
The like results for `COc1ccc(Nc2ncc(CNc3ccccc3)cc2-c2nc(C)nc3[nH]cnc23)cn1` [Example 83, N-(6-methoxypyridin-3-yl)-3-(2-methyl-9H-purin-6-yl)-5-((phenylamino)methyl)pyridin-2-amine] were, in that order, 45 nM and 700 nM.
For `COC(=O)N1CCN(Cc2cnc(Nc3ccc(OC)nc3)c(-c3nc(C)nc4[nH]cnc34)c2)CC1` [Example 86, Methyl 4-((6-(6-Methoxypyridin-3-Ylamino)-5-(2-Methyl-9H-Purin-6-yl)Pyridin-3-yl)Methyl)Piperazine-1-Carboxylate], the Ki at PI3Kα amounted to 18 nM. In addition, the IC50 in assay [1] worked out at 63 nM.
With `COc1ccc(Nc2nccnc2-c2nc(C)nc(N)n2)cn1` [Example 114, 4-(3-(6-methoxypyridin-3-ylamino)pyrazin-2-yl)-6-methyl-1,3,5-triazin-2-amine], on PI3Kα, the Ki turned out to be 327 nM.
With `COc1ccc(Nc2cnccc2-c2nc(C)nc(N)n2)cn1` [Example 115, 4-(3-(6-methoxypyridin-3-ylamino)pyridin-4-yl)-6-methyl-1,3,5-triazin-2-amine], the Ki at PI3Kα worked out at 868 nM.
Same read-out and setting: to `COc1ccc(Nc2nccnc2-c2cc(N)nc(C)n2)cn1` [Example 116, 6-(3-(6-methoxypyridin-3-ylamino)pyrazin-2-yl)-2-methylpyrimidin-4-amine] belongs 59 nM; to `COc1ccc(Nc2ncncc2-c2nc(C)nc(N)n2)cn1` [Example 117, 4-(4-(6-methoxypyridin-3-ylamino)pyrimidin-5-yl)-6-methyl-1,3,5-triazin-2-amine], 18 nM; to `COc1ccc(Nc2ccccc2-c2nc(C)nc(N)n2)cn1` [Example 239, 4-(2-(6-Methoxypyridin-3-Ylamino)Phenyl)-6-Methyl-1,3,5-Triazin-2-Amine], 396 nM.
The same measure, in the same setting: to `COc1ncc(Nc2ncccc2-c2nc(C)nc(N)n2)cc1F` [Example 246, 4-(2-(5-Fluoro-6-Methoxypyridin-3-Ylamino)Pyridin-3-yl)-6-Methyl-1,3,5-Triazin-2-Amine] belongs 19 nM.
Turning to `COc1ncc(Nc2ncc(C(C)(C)O)cc2-c2nc(C)nc(N)n2)cc1F` [Example 273, 2-(5-(4-Amino-6-Methyl-1,3,5-Triazin-2-yl)-6-(5-Fluoro-6-Methoxypyridin-3-Ylamino)Pyridin-3-yl)Propan-2-ol], the Ki at PI3Kα came to 4 nM.
Take `COc1ncc(Nc2ncc(C(C)(C)CO)cc2-c2nc(C)nc(N)n2)cc1F` [Example 311, 2-(5-(4-amino-6-methyl-1,3,5-triazin-2-yl)-6-(5-fluoro-6-methoxypyridin-3-ylamino)pyridin-3-yl)-2-methylpropan-1-ol]: on PI3Kα, the Ki is 8 nM.
Consider `COc1ncc(Nc2ncc(C(C)CO)cc2-c2nc(C)nc(N)n2)cc1F` (stereo not shown) [Example 312, 2-(5-(4-amino-6-methyl-1,3,5-triazin-2-yl)-6-(5-fluoro-6-methoxypyridin-3-ylamino)pyridin-3-yl)propan-1-ol], for which, at PI3Kα, the Ki was 2 nM.
The same measure, in the same setting: to `COc1ncc(Nc2ncc(C(O)C(F)(F)F)cc2-c2nc(C)nc(N)n2)cc1F` (stereo not shown) [Example 314, 1-(5-(4-Amino-6-Methyl-1,3,5-Triazin-2-yl)-6-(5-Fluoro-6-Methoxypyridin-3-Ylamino)Pyridin-3-yl)-2,2,2-Trifluoroethanol] belongs 17 nM; to `Cc1nc(N)nc(-c2cc(CN3CCOCC3)cnc2Nc2cnc(Cl)c(NS(C)(=O)=O)c2)n1` [Example 332, N-(5-(3-(4-Amino-6-Methyl-1,3,5-Triazin-2-yl)-5-(Morpholinomethyl)Pyridin-2-Ylamino)-2-Chloropyridin-3-yl)Methanesulfonamide], 4 nM.
With `Cc1nc(N)nc(-c2cc(CN3CCOCC3)cnc2Nc2cnc(Cl)c(NS(=O)(=O)N(C)C)c2)n1` [Example 333, N′-(5-((3-(4-Amino-6-Methyl-1,3,5-Triazin-2-yl)-5-(4-Morpholinylmethyl)-2-Pyridinyl)Amino)-2-Chloro-3-Pyridinyl)-N,N-Dimethylsulfamide], the Ki at PI3Kα was 7 nM.
Take `Cc1nc(N)nc(-c2cc(C(C)(C)O)cnc2Nc2cncc(F)c2)n1` [Example 352, 2-(5-(4-Amino-6-Methyl-1,3,5-Triazin-2-yl)-6-(5-Fluoropyridin-3-Ylamino)Pyridin-3-yl)Propan-2-ol]: the Ki on PI3Kα is 23 nM.
The same measure, in the same setting: to `COc1cncc(Nc2ncc(C(C)(C)O)cc2-c2nc(C)nc(N)n2)c1` [Example 353, 2-(5-(4-Amino-6-Methyl-1,3,5-Triazin-2-yl)-6-(5-Methoxypyridin-3-Ylamino)Pyridin-3-yl)Propan-2-ol] belongs 15 nM.
For the compound `Cc1nc(N)nc(-c2cc(C(C)(C)O)cnc2Nc2cncc(S(=O)(=O)c3ccccc3)c2)n1` [Example 356, 2-(5-(4-Amino-6-Methyl-1,3,5-Triazin-2-yl)-6-(5-(Phenylsulfonyl)Pyridin-3-Ylamino)Pyridin-3-yl)Propan-2-ol], at PI3Kα, the Ki amounted to 58 nM.
With `Cc1nc(N)cc(-c2cc(C(C)N3CCOCC3)cnc2Nc2cnc(Cl)c(NS(=O)(=O)N(C)C)c2)n1` (stereo not shown) [Example 379, N-(2-Chloro-5-(3-(6-Amino-2-Methylpyrimidin-4-yl)-5-(1-Morpholinoethyl)Pyridin-2-Ylamino)Pyridin-3-yl)-N,N-Dimethylaminosulfamide], in assay [1], the IC50 worked out at 46 nM.
On the same count and under the same terms, to `Cc1nc(N)cc(-c2cc([C@@H](C)N3CCOCC3)cnc2Nc2cnc(Cl)c(NS(=O)(=O)N(C)C)c2)n1` [Example 381, (R)—N-(2-Chloro-5-(3-(6-Amino-2-Methylpyrimidin-4-yl)-5-(1-Morpholinoethyl)Pyridin-2-Ylamino)Pyridin-3-yl)-N,N-Dimethylaminosulfamide] belongs 40 nM.
Turning to `Cc1nc(N)cc(-c2cc([C@H](C)N3CCOCC3)cnc2Nc2cnc(Cl)c(NS(=O)(=O)N(C)C)c2)n1` [Example 382, (S—)N-(2-Chloro-5-(3-(6-Amino-2-Methylpyrimidin-4-yl)-5-(1-Morpholinoethyl)Pyridin-2-Ylamino)Pyridin-3-yl)-N,N-Dimethylaminosulfamide], in assay [1], the IC50 is 23 nM.
